Substitutions are numbered along the chain they refer to. One block for each compound: values may come before it.
How the values were obtained:
Assay type in all cases: biochemical
[1] = biological target: T1, Escherichia coli malate dehydrogenase Ec-Mdh variant R81A G179D, SEQ ID No. 168 (Escherichia coli, UniProt P61889, G179D/R81A); test: DHB dehydrogenase kinetics, Ec-Mdh R81A G179D; settings: 37° C., pH 8, 10 mM NAD
T1 sequence (P61889 1-312 R81A/G179D): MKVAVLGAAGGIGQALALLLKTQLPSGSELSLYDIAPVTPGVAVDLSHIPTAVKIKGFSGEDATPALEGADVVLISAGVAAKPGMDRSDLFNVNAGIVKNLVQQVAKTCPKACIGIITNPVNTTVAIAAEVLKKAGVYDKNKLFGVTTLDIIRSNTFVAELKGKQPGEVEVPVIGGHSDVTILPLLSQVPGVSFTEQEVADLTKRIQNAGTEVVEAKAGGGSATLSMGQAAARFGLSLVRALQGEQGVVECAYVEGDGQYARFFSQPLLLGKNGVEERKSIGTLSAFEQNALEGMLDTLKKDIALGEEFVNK
Protocol: Site-directed mutagenesis of the E. coli mdh and the B. subtilis mdh genes were carried out using the oligonucleotide pairs listed in Table 3 and the pET28-Ec-mdh and the pET28-Bs-mdh plasmids as the templates. Point mutations to change the amino acid sequence were introduced by PCR (Phusion 1U, HF buffer 20% (v/v), dNTPs 0.2 mM, direct and reverse primers 0.04 μM each, template plasmid 50 ng, water) using the oligonucleotide pairs listed in Table 3. Mutated genes contained a new restriction site listed in Table 3 (introduced using silent mutations) in addition to the functional mutation to facilitate identification of mutated clones. The PCR products were digested by DpnI at 37° C. for 1 h to remove template DNA, and transformed into competent E. coli DH5-alpha cells (NEB). The mutated plasmids were identified by restriction site analysis and verified to carry the desired mutations by DNA sequencing.
Mutant enzymes were expressed, purified and tested for DHB dehydrogenase activity as described in Example 1.
The mutation R81A in Ec-Mdh (by reference to SEQ ID No. 124) was combined with additional changes in the protein sequence.

[2] = biological target: T2, Escherichia coli malate dehydrogenase Ec-Mdh variant R81A I12V, SEQ ID No. 162 (Escherichia coli, UniProt P61889, I12V/R81A); test: DHB dehydrogenase / malate dehydrogenase kinetics, Ec-Mdh R81A I12V; settings: read-out: Km (DHB); 37° C., pH 8, 10 mM NAD
T2 sequence (P61889 1-312 I12V/R81A): T1 sequence (P61889 1-312 R81A/G179D) with I12V, D179G
Protocol: (§4) Activity of the cytosolic DHB dehydrogenases (Ec-Mdh, Bs-Mdh, Ll-LdhA) was assayed by following the DHB-dependent reduction of NAD^+.
(§5) The reaction mixture contained 60 mM Hepes (pH 8), 50 mM potassium chloride, 5 mM MgCl2, 10 mM NAD, (optionally, 5 mM fructose-1,6-bisphosphate (F16bP)) (all products from Sigma), and appropriate amounts of purified enzyme or cell extract. Reactions were started by adding 50 mM (L)-2,4-dihydroxybutyrate (Rhodia).
All enzymatic assays were carried out at 37° C. in 96-well flat bottomed microtiter plates in a final volume of 250 μL.

[3] = biological target: T3, Zymomonas mobilis pyruvate decarboxylase Zm-Pdc variant G413N, SEQ ID No. 194 (Zymomonas mobilis, UniProt P06672, G413N); test: OHB decarboxylase / pyruvate decarboxylase kinetics, Zm-Pdc G413N; settings: 37° C., pH 7, coupled to yeast alcohol dehydrogenase/NADH; read-out: Km (natural substrate, pyruvate)
T3 sequence (P06672 1-568 G413N): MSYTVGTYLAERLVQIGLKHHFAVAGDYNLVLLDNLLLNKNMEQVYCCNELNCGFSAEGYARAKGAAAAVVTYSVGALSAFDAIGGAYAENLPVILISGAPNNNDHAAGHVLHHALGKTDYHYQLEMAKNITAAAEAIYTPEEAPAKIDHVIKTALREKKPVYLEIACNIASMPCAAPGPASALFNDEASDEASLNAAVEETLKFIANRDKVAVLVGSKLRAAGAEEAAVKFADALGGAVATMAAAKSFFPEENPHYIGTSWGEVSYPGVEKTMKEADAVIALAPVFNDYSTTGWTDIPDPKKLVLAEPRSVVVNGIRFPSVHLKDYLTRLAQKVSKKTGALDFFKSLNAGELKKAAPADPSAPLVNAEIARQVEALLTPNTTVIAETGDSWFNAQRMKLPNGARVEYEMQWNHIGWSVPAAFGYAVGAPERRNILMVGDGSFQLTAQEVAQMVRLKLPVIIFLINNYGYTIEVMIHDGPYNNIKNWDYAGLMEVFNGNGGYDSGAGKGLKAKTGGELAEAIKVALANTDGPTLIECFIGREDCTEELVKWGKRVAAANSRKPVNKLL
Protocol: (§1) OHB decarboxylase activity was assayed by coupling the decarboxylase activity to the NADPH-dependent reduction of the released 3-hydroxypropanal by purified aldehyde reductase, YqhD, from E. coli. The decarboxylation of pyruvate was coupled to the NADH-dependent reduction of acetaldehyde catalysed by yeast alcohol dehydrogenase. Branched-chain alpha-ketoacid decarboxylase activity was measured on 4-methyl-2-oxovaleric acid by coupling to the NADH-dependent reduction of 3-methylbutanal catalysed by horse liver alcohol dehydrogenase. […] Reactions were started by adding 20 mM 2-oxo-4-hydroxybutyrate (OHB), 10 mM 4-methyl-2-oxovaleric acid (MOV), or 5 mM pyruvate.
(§2) Site-directed mutagenesis of the L. lactis kdcA and the Z. mobilis Pdc genes was carried out using the oligonucleotide pairs listed in Table 9 and the pET28-Ll-kdcA and pET28-Zm-Pdc plasmids, respectively, as the template.
(§3) Mutant enzymes were expressed, purified and tested for OHB decarboxylase, pyruvate decarboxylase and MOV decarboxylase activity as described in Example 4.

[4] = biological target: T4, Zymomonas mobilis pyruvate decarboxylase Zm-Pdc variant W392L, SEQ ID No. 192 (Zymomonas mobilis, UniProt P06672, W392L); test: OHB decarboxylase / pyruvate decarboxylase kinetics, Zm-Pdc W392L; settings: 37° C., pH 7, coupled to yeast alcohol dehydrogenase/NADH; read-out: Km (natural substrate, pyruvate)
T4 sequence (P06672 1-568 W392L): T3 sequence (P06672 1-568 G413N) with W392L, N413G
Protocol: as §1, §2, §3

[5] = DHB dehydrogenase activity of cytosolic enzymes (DHB-dependent reduction of NAD+)
Protocol: as §4, §5
All enzymatic assays were carried out at 37° C. in 96-well flat bottomed microtiter plates in a final volume of 250 μL. The reactions were followed by the characteristic absorption of NADH at 340 nm (εNADH=6.22 mM^−1 cm^−1) or the absorbtion of DCIP at 655 nm (εDCIP=5.9 mM^−1 cm^−1) in a microplate reader (BioRad 680XR).

[6] = Malate dehydrogenase activity (natural substrate)

Compound: O=C(O)[C@@H](O)CCO [DHB, (L)-2,4-dihydroxybutyrate]
Km [1]: > 100 mM
Km [2]: > 100 mM

Compound: CC(=O)C(=O)O [pyruvate]
Km [3]: > 50 mM
Km [4]: > 50 mM

maximum activity on DHB ([5]; text of Example 2): 0 µmol/mg/min
activity on malate ([6]; text of Example 2): 10.9 µmol/mg/min
Compound: Bs-Mdh: (L)-malate dehydrogenase of Bacillus subtilis, wild-type, SEQ ID No. 126
DHB dehydrogenase activity (in words) ([5]; cytosolic wild-type enzymes): no measurable DHB dehydrogenase activity
Max. specific activity, DHB ([5]; when not saturated, activity estimated at 50 mM substrate, Table 2): 0 µmol/mg/min
Max. specific activity, Natural substrate ([6]; natural substrate (L)-malate, Table 2): 10.5 µmol/mg/min

Reference: patent US9605283B2, “Microorganism modified for the production of 1,3-propanediol” (INSTITUT NATIONAL DES SCIENCES APPLIQUÉES, priority 2012, dated 2017)
